Experimental data as given in US5250544A, “New piperidine tetrahydropyridine and pyrrolidine compounds” (Adir et Compagnie, priority 1990, dated 1993).

Test: Evaluation of the antihypertensive activity: arterial pressure and heart rate in anesthetized dogs, i.v.
Type: in vivo
Conditions: anesthetized mongrel dogs, versus flesinoxan racemic or isomer (+)
Protocol: Mongrel dogs (males and females) were anesthetized with phenobarbital (30 mg/kg i.v.) and then placed under artificial respiration (Bird Mark VII respirator). The arterial pressure was measured using a catheter placed in the abdominal aorta via the femoral artery. This catheter is connected to a pressure cell (Statham® R23 D6) connected to a recorder.
The heart rate was measured using a Gould Biotach®.
The sympathetic nervous activity was recorded at the level of the renal nerve using a silver electrode. […] The compounds to be examined were administered intravenously.

With `O=C(NCCN1CCN(c2cccc3c2OC[C@H](CO)O3)CC1)c1ccc(F)cc1` (single isomer, unassigned) [Flesinoxan (+) Isomer] the “activity compared with reference product flesinoxan (antihypertensive study, Table II)” value was “most active isomer of flesinoxan”.
